Patent publication US8324282B2, “Alkylating agent combinations in the treatment of cancer” (Case Western Reserve University, priority 1999, dated 2012)

Legend:
HCT116 cells [1] = test: Colony survival assay, HCT116; assay type: cell-based, human; conditions: HCT116
Excerpt: Chemicals and Reagents. BG was generously provided by Dr. Robert Moschel (Frederick Cancer Research and Development Center, National Cancer Institute). Stock solution was made in dimethylsulfoxide. TMZ and BCNU were obtained from the Drug Synthesis and Chemistry Branch, Drug Therapeutic Program, National Cancer Center Institute. PD128763 was a gift from Park-Davis Pharmaceutical Division. 6-AN, 3-AB, MX and methylmethane sulfonate (MMS) were purchased from Sigma (ST. Louis, Mo.). Stock solutions of PD128763, 3-AB and 6-AN were prepared by dissolving in dimethylsulfoxide and added to cell culture at a final concentration of <1% DMSO, when cells were treated with these compounds. MX was dissolved in sterilized water (pH 7.0). All stock solutions were kept at −20° C. BCNU was prepared fresh in 0.5 ml of 100% ethanol, diluted in PBS, and used with in 10 min. Colony Survival Assay. SW480 cells were obtained from the ATCC. HCT116 cells were obtained from R. Boland, University of Michigan Medical Center. All cell lines were cultured in appropriate growth medium.
Cells (2000/dish) were plated, adhered for 18 hrs and treated with TMZ or
MMS plus or minus modifiers such as […], MX, 6-AN, 3-AB or PD128763, according to experimental protocol. After treatment, cells were washed and fresh medium was replaced. The cells were grown for a further 7 days prior to staining with methylene blue for determination of colonies containing more than 50 cells. Comparisons of drug induced cytotoxicity consisted of a calculation of the dose modification factor (DMF), defined as the ratio of the IC50 of either TMZ or MMS in the absence to that in the presence of indicted modifier(s), i.e., DMF═IC50 for TMZ alone/IC50 for TMZ plus modifier(s).

HCT116 cells [2] = test: Flow cytometry cell cycle distribution and apoptosis, HCT116; assay type: cell-based, human
[3] = Acute toxicity of MX (i.p.); conditions: mice, single injection
Protocol: Three mice per group were injected (i.p.) with MX at doses of 1, 2, 4, 6, 10 and 15 mg/kg for the test of acute toxicity.

HCT116 xenograft = HCT116 xenograft tumor response in nude mice; assay type: in vivo; conditions: HCT116 xenograft; Table 2 doses: TMZ 120, MX 2, MX+TMZ 2/120 mg/kg; daily for 5 days
AP-endonuclease (APE) = test: AP site cleavage by AP-endonuclease (APE); assay type: biochemical
Protocol: 2. AP sites cleavaged by AP-endonuclease (APE). […] The assay may be performed as follows (see also FIGS. 23A and B):
a. AP site is prepared by replacing single nucleoside with deoxyuridine in duplex oligonucleotides (40 mer).
b. Regular AP site is produced in the duplex oligonucleotides by human uracil DNA glycosylase (LIDGase, Trevigen, Gaithersburg, Md.) to remove the uracil residue.
c. To generate MX-adducted AP site substrates: the UDG-treated duplex oligonucleotides are mixed with 10 mM MX in buffer containing 10 mM KPO4, pH 7.1 and incubated at 37° C. After 30 min, the substrates are recovered by ethanol precipitation, lyophilized, resuspended in water, and stored at −20° C.
d. APE-cleavage reaction: DNA substrates containing either regular AP-sites or chemicalmodified AP sites are incubated with APE (Trevigen, Gaithersburg, Md.) for 30 min and reactants are precipitated with 100% cold ethanol, washed with 70% ethanol and resuspended in TE buffer. The reactants are resolved by denaturing 20% polyacrylamide gel electrophoresis and visualized by silver staining (Silver Staining Kit, Pharmacia Biotech).

[4] = test system: human bone marrow cells (CD34+ cells); test: Colony forming assay, human bone marrow / CD34+ cells; assay type: cell-based; conditions: human CD34+ cells; colony forming assay
Excerpt: (§1) We observed less myelosuppression and less weight loss using TMZ and MX than using TMZ and BG. […] To test this hypothesis, we conducted in vitro experiments comparing the sensitivity to BG+TMZ and MX+TMZ in colon cancer cell lines with that of mouse bone marrow and human bone marrow cells. […] MX increased TMZ killing by 4 fold in SW480 cells. […] Topoisomerase (Topo) I and Topo II recognize spontaneous AP sites and form stable cleavable complexes. We hypothesized that AP sites formed during repair of TMZ-induced N7 mG and N3 mA adducts would also be recognized by Topo I and Topo II. However since Base Excision Repair [BER] is normally quite efficient, we further hypothesized that the impact of Topo I and Topo II would be most important after MX inhibition of BER; increased unrepaired MX adducted AP sites should increase Topo mediated strand breaks and apoptosis. Therefore, potentiation of TMZ cytotoxicity by MX would be dependent on Topo I and II. […] Lack of Topo I and II results in less cleavable complex formation, fewer double strand DNA breaks, and less apoptosis. We predict a better therapeutic index for the combination of MX/TMZ than observed with BG/TMZ because of the relative overexpression of topoisomerases I and II in malignant cells compared to marrow progenitors.

[5] = test system: murine bone marrow progenitor cells; test: Colony forming assay, murine bone marrow progenitor cells; assay type: cell-based, mouse; conditions: murine bone marrow progenitor cells; colony forming assay
Excerpt: as §1

[6] = Toxicity evaluation in mice bearing HCT116 xenograft; conditions: Table 2 doses
Protocol: Tumors in Nude Mice. Tumor cells (5×10^6) were injected into flanks of female athymic HSD nude mice, at 6-8 weeks of age. The tumors were measured with calipers using the National Cancer Institute formula: V=L(mm)×I^2 (mm)/2 where L is the largest diameter and I is the smallest diameter of the tumor. […] Toxicity Evaluation. Toxicity after treatment was evaluated by body weight measurements and peripheral WBC counting. Body weight was measured three times weekly from the first treatment until 2 weeks after the end of treatment. The weight loss was expressed as a percentage of the initial weight (initial weight−lowest weight/initial weight×100%).

## CON [MX, methoxyamine]
HCT116 cells [1]; 6 mM MX
  cytotoxicity of MX alone: nontoxic
HCT116 cells [1]; MMS 0-3 mM plus 6 mM MX 1 hr vs MMS alone
  DMF of MMS: 2.3
HCT116 cells [1]; modifier plus TMZ vs TMZ alone
  DMF (IC50 for TMZ alone/IC50 for TMZ plus modifier): 3.1 fold
HCT116 cells [1]; without BG
  effect of modifier on BCNU cytotoxicity: No enhancement
HCT116 cells [2]
  effect on cell cycle distribution: did not affect
[3]
  lethal dose: 15 mg/kg
HCT116 xenograft
  Tumor growth delays: 2.2 ± 0.4 days
AP-endonuclease (APE)
  cleavage of modified AP sites by APE: resistant to cleavage
[4]
  potentiation of TMZ cytotoxicity: no potentiation
[5]
  potentiation of TMZ cytotoxicity: no potentiation
[6]
  Toxicity (max. BW loss): 8.3%
